Consider two compounds from patent EP0570112A1, “Cycloalkane derivatives” (ZENECA LIMITED, priority 1992, dated 1993).

The test addresses T1, 5-LO (Homo sapiens, UniProt P09917).
T1 construct: incubating a test compound with heparinised human blood, prior to challenge with the calcium ionophore A23187; endogenous in cells; host or cells: blood cells of heparinised human whole blood
T1 sequence (P09917 1-674): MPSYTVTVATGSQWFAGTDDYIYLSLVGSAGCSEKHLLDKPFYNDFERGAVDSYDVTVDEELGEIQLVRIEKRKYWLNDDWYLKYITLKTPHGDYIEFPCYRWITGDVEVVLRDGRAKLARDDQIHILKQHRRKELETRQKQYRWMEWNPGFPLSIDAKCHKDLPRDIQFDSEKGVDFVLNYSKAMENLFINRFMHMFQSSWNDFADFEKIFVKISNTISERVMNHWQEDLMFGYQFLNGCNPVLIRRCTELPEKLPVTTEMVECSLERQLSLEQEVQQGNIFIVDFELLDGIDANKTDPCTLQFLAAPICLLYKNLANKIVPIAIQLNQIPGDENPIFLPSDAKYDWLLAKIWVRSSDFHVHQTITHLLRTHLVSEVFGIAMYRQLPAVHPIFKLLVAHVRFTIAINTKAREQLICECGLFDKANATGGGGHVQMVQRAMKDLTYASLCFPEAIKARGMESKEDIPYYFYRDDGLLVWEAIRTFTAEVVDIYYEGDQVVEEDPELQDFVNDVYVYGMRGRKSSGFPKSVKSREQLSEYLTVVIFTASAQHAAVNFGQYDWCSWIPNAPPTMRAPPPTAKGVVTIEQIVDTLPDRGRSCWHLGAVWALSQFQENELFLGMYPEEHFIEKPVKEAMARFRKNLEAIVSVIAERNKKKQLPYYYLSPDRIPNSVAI
The experiment in a line: Test a): in vitro heparinised human blood challenged with calcium ionophore A23187, radioimmunoassay of LTB4. The class given is cell-based. To be noted: A23187 challenge, read-out: IC₅₀ against LTB₄. From the text:
As stated previously, the compounds of the formula I are inhibitors of the enzyme 5-LO. […] J. Pharmacol. 1985, 84, 34P) which involve the use of a protein-LTB₄ conjugate produced using the procedure of Young et alia (Prostaglandins, 1983, 26(4), 605-613). The effects of a test compound on the enzyme cyclooxygenase (which is involved in the alternative metabolic pathway for arachidonic acid and gives rise to prostaglandins, thromboxanes and related metabolites) may be measured at the same time using the specific radioimmunoassay for thromboxane B₂(TxB₂) described by Carey and Forder (see above). This test provides an indication of the effects of a test compound against 5-LO and also cyclooxygenase in the presence of blood cells and proteins. It permits the selectivity of the inhibitory effect on 5-LO or cyclooxygenase to be assessed. • b) An ex vivo assay system, which is a variation of test a) above, involving administration to a group of rats of a test compound (usually orally as the suspension produced when a solution of the test compound in dimethylsulphoxide is added to carboxymethylcellulose), blood collection, heparinisation, challenge with A23187 and radioimmunoassay of LTB₄ and TxB₂. […]

On to `COC1(OC)CC[C@H](C)[C@H](c2cccc(OCc3ccc4c(ccc(=O)n4C)c3)c2)C1` (racemic) [Example 4, (3RS,4SR)-1,1-dimethoxy-4-methyl-3-[3-(1-methyl-2-oxo-1,2-dihydroquinolin-6-ylmethoxy)phenyl]cyclohexane], for which the IC50 is 40 nM.

As to `COC1CCC(C)C(c2cccc(OCc3ccc4c(ccc(=O)n4C)c3)c2)C1` (centres unmarked) [Example 2, 1-methoxy-4-methyl-3-[3-(1-methyl-2-oxo-1,2-dihydroquinolin-6-ylmethoxy)phenyl]cyclohexane], the IC50 came out at 390 nM.
